In the assay the target is HIV-1 NefNL4-3 (Human immunodeficiency virus type 1 group M subtype B, UniProt P03406, A33V/T15A/T51N/V11I). Briefly: Surface plasmon resonance binding to recombinant full-length Nef (NL4-3). The following applies: for Nef NL4-3 Binding, SPR 1:1 or 2-site fitting KD1: 1:1 Langmuir fit where the KD2 cell says '1 to 1 fitting', else 2-site fit. Background: Surface plasmon resonance follows binding to a sensor surface in real time, without labels.

The mark [1] stands for this setting: read-out: Nef NL4-3 Binding, SPR 1:1 or 2-site fitting KD2, Table 1, 2-site fit, second component.

Where two headings read alike, the source gives them in different places.

As for `Oc1c(CCc2ccc(F)cc2)c(-c2ccccc2Cl)nn1-c1nc2ccccc2[nH]1` [Compound I-117, 1-(1H-1,3-benzodiazol-2-yl)-3-(2-chlorophenyl)-4-[2-(4-fluorophenyl)ethyl]-1H-pyrazol-5-ol], the Kd turned out to be 1710 nM. For the same compound, the Kd under setting [1] was found to be 24700 nM.
As for `CC(C)(C)OC(=O)N1CCC(c2nn(-c3nc4ccccc4[nH]3)c(O)c2Cc2ccc(F)c(F)c2)CC1` [Compound I-203, tert-butyl 4-[1-(1H-1,3-benzodiazol-2-yl)-4-[(3,4-difluorophenyl)methyl]-5-hydroxy-1H-pyrazol-3-yl]piperidine-1-carboxylate], the Kd was 821 nM. Further, the Kd under setting [1] was determined as 45400 nM.
As for `Oc1c(CCc2ccc(F)cc2)c(C2CCNCC2)nn1-c1nc2ccccc2[nH]1` [Compound I-551, 1-(1H-1,3-benzodiazol-2-yl)-4-[2-(4-fluorophenyl)ethyl]-3-(piperidin-4-yl)-1H-pyrazol-5-ol], the “Nef NL4-3 Binding, SPR 1:1 or 2-site fitting KD1” value (shortened to “Nef NL4-3 Binding”) (Table 1) is “No Interaction”.
For `Oc1c(CCc2ccc(F)c(Cl)c2)c(-c2cnccn2)nn1-c1nc2ccccc2[nH]1` [Compound I-112, 1-(1H-1,3-benzodiazol-2-yl)-4-[2-(3-chloro-4-fluorophenyl)ethyl]-3-(pyrazin-2-yl)-1H-pyrazol-5-ol], the “Nef NL4-3 Binding” value (Table 1) is recorded as “No Interaction”.
Consider `CN1CCC(c2nn(-c3nc4ccccc4[nH]3)c(O)c2CCc2ccc(F)cc2)CC1` [Compound I-801, 1-(1H-1,3-benzodiazol-2-yl)-4-[2-(4-fluorophenyl)ethyl]-3-(1-methylpiperidin-4-yl)-1H-pyrazol-5-ol], for which the “Nef NL4-3 Binding” value (Table 1) was “No Interaction”.
As to `Oc1c(CCc2ccc(F)cc2)c(-c2cccc(Cl)c2)nn1-c1nc2ccccc2[nH]1` [Compound I-116, 1-(1H-1,3-benzodiazol-2-yl)-3-(3-chlorophenyl)-4-[2-(4-fluorophenyl)ethyl]-1H-pyrazol-5-ol], the Kd is 2010 nM.
Consider `CC(=O)N1CCC(c2nn(-c3nc4ccccc4[nH]3)c(O)c2CCc2ccc(F)cc2)CC1` [Compound I-741, 1-{4-[1-(1H-1,3-benzodiazol-2-yl)-4-[2-(4-fluorophenyl)ethyl]-5-hydroxy-1H-pyrazol-3-yl]piperidin-1-yl}ethan-1-one], for which the Kd was 3260 nM. In addition, the Kd under setting [1] stood at 10600 nM.
For the compound `Oc1c(CCc2ccc(F)cc2)c(-c2ccccn2)nn1-c1nc2ccccc2[nH]1` [Compound I-109, 1-(1H-1,3-benzodiazol-2-yl)-4-[2-(4-fluorophenyl)ethyl]-3-(pyridin-2-yl)-1H-pyrazol-5-ol], the Kd turned out to be 36.2 nM.
For the compound `Oc1c(Cc2ccc(F)c(F)c2)c(C2CCN(CC(F)(F)F)CC2)nn1-c1nc2ccccc2[nH]1` [Compound I-1001, 1-(1H-1,3-benzodiazol-2-yl)-4-[(3,4-difluorophenyl)methyl]-3-[1-(2,2,2-trifluoroethyl)piperidin-4-yl]-1H-pyrazol-5-ol], the Kd (Table 1, 2-site fit, second component, read-out: Nef NL4-3 Binding, SPR 1:1 or 2-site fitting KD2) was found to be 500 nM and the Kd (read-out: Nef NL4-3 Binding, SPR 1:1 or 2-site fitting KD1) was found to be 257 nM.
As for `Oc1c(CCc2ccc(F)cc2)c(-c2ccncc2)nn1-c1nc2ccccc2[nH]1` [Compound I-113, 1-(1H-1,3-benzodiazol-2-yl)-4-[2-(4-fluorophenyl)ethyl]-3-(pyridin-4-yl)-1H-pyrazol-5-ol], the Kd amounted to 3350 nM.
Turning to `CS(=O)(=O)N1CCC(c2nn(-c3nc4ccccc4[nH]3)c(O)c2CCc2ccc(F)cc2)CC1` [Compound I-743, 1-(1H-1,3-benzodiazol-2-yl)-4-[2-(4-fluorophenyl)ethyl]-3-(1-methanesulfonylpiperidin-4-yl)-1H-pyrazol-5-ol], under “Table 1”, the “Nef NL4-3 Binding” value is “No Interaction”.
Take `Cc1ccc(-c2nn(-c3nc4ccccc4[nH]3)c(O)c2CCc2ccc(F)cc2)cc1` [Compound I-104, 1-(1H-1,3-benzodiazol-2-yl)-4-[2-(4-fluorophenyl)ethyl]-3-(4-methylphenyl)-1H-pyrazol-5-ol]: the Kd was 2370 nM. Besides, under “Nef NL4-3 Binding, SPR 1:1 or 2-site fitting KD2, Table 1, 2-site fit, second component”, the Kd was found to be 2260 nM.

These data come from patent US20220380341A1, “INHIBITORS OF HIV-1 NEF FOR THE TREATMENT OF HIV DISEASE” (priority 2018, published 2022).
